# Results: US20250353825A1, “CANNABICYCLOL DERIVATIVES AND PREPARATION METHODS THEREOF” (priority 2023, published 2025)
# Key:
# Type in all cases: cell-based
# MHCC97H-CSC = test: MTS cell viability assay, MHCC97H-CSC; conditions: Table 6, tumor stem cell, 72 hours; read-out: IC50 against MHCC97H-CSC
# Description: (§1) Primary viability screening: (1) the synthesized compounds 3a to 13d were respectively dissolved in DMSO to prepare a 40 μg/mL cannabicyclol and cannabicyclol derivative solutions.
# (§2) (2) A control group: a 200 μL DMSO solvent.
# (§3) (3) The solutions of compounds 3a to 13d were diluted in a twofold gradient to obtain cannabicyclol and cannabicyclol derivative solutions at concentrations of 40 μg/mL, 20 μg/mL, 10 μg/mL, 5 μg/mL, 2.5 μg/mL, 1.25 μg/mL, and 0.625 μg/mL, and 0.3125 μg/mL, respectively.
# (§4) (4) Three glioblastoma stem cells (GSC-3, GSC-12, and GSC-18), three pancreatic cancer cell-derived stem cells (PANC-1-CSC, BXPC-3-CSC, and ASPC1-CSC), three liver cancer cell-derived stem cells (HepG2-CSC, MHCC97H-CSC, and SMMC7721-CSC), HEK-293T cells, 16 tumor cells (U251, U87, T98G, PANC1, BXPC3, ASPC1, HepG2, MHCC97H, SMMC7721, PC3, SKOV3, MDA-MB231, A549, HCT116, HEC-1B, MKN28), and differentiated glioblastoma stem cells (GSC-3diff and GSC-12diff) derived from GSC-3 and GSC-12 (all of the cells were provided by the Laboratory of Tumor Animal Model Preparation and Application Research, West China Hospital, Sichuan University) were inoculated into a 96-well plate at a concentration of 2×10^4 cells/well, and 100 μL of culture medium was then added to each well; […]
# (§5) (10) The absorbance value at 490 nm was measured on an enzyme labeling apparatus, and the IC50 value was calculated.
# BXPC3-CSC = test: MTS cell viability assay, BXPC3-CSC; conditions: Table 6, tumor stem cell, 72 hours; read-out: IC50 against BXPC3-CSC
# Description: as §1, §2, §3, §4, §5
# SMMC7721 = test: MTS cell viability assay, SMMC7721; conditions: Homo sapiens, SMMC-7721; Table 7, 72 hours; read-out: IC50 against SMMC7721
# Description: as §1, §2, §3, §4, §5
# GSC-12diff = test: MTS cell viability assay, differentiated glioblastoma stem cells GSC-12diff; conditions: Table 7, 72 hours, read-out: IC50 against GSC-12diff
# Description: as §1, §2, §3, §4, §5
# SMMC7721-CSC = test: Soft agar colony (clone) formation, SMMC7721-CSC; conditions: crystal violet, FIG. 4, compound 3a 0, 5 and 5 [sic] μg/mL
# Description: […] of low-melting-point agarose was dissolved in 12.5 mL of ddH2O to prepare a 3.2% low-melting-point agarose gel. The low-melting-point agarose gel was sterilized by autoclaving at 121° C. and 0.12 MPa for 20 minutes. After sterilization, the low-melting-point agarose gel was maintained at 60° C. in a drying oven for further use.
# 1.75 mL of 3.2% sterile low-melting-point agarose gel was taken, 5.25 mL of the corresponding complete medium was added, and the two were mixed thoroughly using a pipette to prepare a base gel at a concentration of 0.8%.
# 1 mL of the base gel was added to each well of a 6-well plate, ensuring that the base gel evenly covered the bottom of each well. The plate was placed at 4° C. for 5 minutes to allow the gel to solidify. After the gel had fully solidified, the plate was warmed at 37° C. for 5 minutes.
# 6 cells/cell lines (U251, SMMC7721, GSC-3, GSC-12, SMMC7721-CSC, and HepG2-CSC) were individually digested with 1× trypsin for 3 minutes. The corresponding complete culture medium (same as in the application example 1) was added to terminate the digestion. Cells were centrifuged at 1000 rpm for 3 minutes, and the cells were collected and counted. A total of 5×10^3 cells were added to each well, each group was set up with three replicates. […]
# ASPC1-CSC = test: MTS cell viability assay, ASPC1-CSC; conditions: Table 6, tumor stem cell, 72 hours; read-out: IC50 against ASPC1-CSC
# Description: as §1, §2, §3, §4, §5
# MHCC97 = test: MTS cell viability assay, MHCC97; conditions: Homo sapiens, Table 7, 72 hours, read-out: IC50 against MHCC97
# Description: as §1, §2, §3, §4, §5
# PANC1-CSC = test: MTS cell viability assay, PANC1-CSC; conditions: Table 6, tumor stem cell, 72 hours; read-out: IC50 against PANC1-CSC
# Description: as §1, §2, §3, §4, §5
# T98G = test: MTS cell viability assay, T98G; conditions: Homo sapiens, Table 7, 72 hours, read-out: IC50 against T98G
# Description: as §1, §2, §3, §4, §5
# HepG2-CSC = test: MTS cell viability assay, HepG2-CSC; conditions: Table 6, tumor stem cell, 72 hours; read-out: IC50 against HepG2-CSC
# Description: as §1, §2, §3, §4, §5
structure (smiles),measurement,setting,value
"CCCCCc1cc(O)c2c(c1)OC1(C)CCC3C1C2C3(C)C (stereo not shown) [Compound 3a, cannabicyclol]",IC50,MHCC97H-CSC,5.32 µg/mL
same,IC50,BXPC3-CSC,2.19 µg/mL
same,IC50,SMMC7721,> 40 µg/mL
same,IC50,GSC-12diff,29.6 µg/mL
same,colony formation of SMMC7721-CSC,SMMC7721-CSC,significantly inhibited
same,IC50,ASPC1-CSC,14.6 µg/mL
same,IC50,MHCC97,> 40 µg/mL
same,IC50,PANC1-CSC,13 µg/mL
same,IC50,T98G,> 40 µg/mL
same,IC50,HepG2-CSC,2.37 µg/mL
